# Patent EP0325131A2, “Pyrimidine derivatives as performance stimulating agents” (BAYER AG, priority 1988, dated 1989)
# Tested on: Weibliche Laborratten
# Experiment: Rat feeding trial (relative weight gain versus untreated control)
# Type: in vivo, Laborratten vom Typ SPF Wistar
# Settings: female SPF Wistar rats 90-110 g, 100 ppm active substance in feed ad lib, 13 days, relative to untreated control
# Description: Weibliche Laborratten 90-110 g schwer vom Typ SPF Wistar (Züchtung Hagemann) werden ad lib mit Standard Rattenfutter, das mit der gewünschten Menge Wirkstoff versetzt ist, gefüttert. Jeder Versuchsansatz wird mit Futter der identischen Charge durchgeführt, so daß Unterschiede in der Zusammensetzung des Futters die Vergleichbarkeit der Ergebnisse nicht beeinträchtigen können.
# Die Ratten erhalten Wasser ad lib.
# Jeweils 12 Ratten bilden eine Versuchsgruppe und werden mit Futter, das mit der gewünschten Menge Wirkstoff versetzt ist, gefüttert. Eine Kontrollgruppe erhält Futter ohne Wirkstoff. Die Versuchsgruppen werden so zusammengestellt, daß das durchschnittliche Körpergewicht sowie die Streuung in den Körpergewichten der Ratten in jeder Versuchsgruppe gleich ist, so daß eine Vergleichbarkeit der Versuchsgruppen untereinander gewährleistet ist.
# Die Tiere werden vor Versuchsbeginn 2 Tage an die neuen Haltungsbedingungen adaptiert, während dieser Zeit wird Futter ohne Wirkstoffzusatz gegeben. Danach erhalten die Tiere 13 Tage lang Futter, das Wirkstoff enthält. Es wird die relative Gewichtszunahme im Verhältnis zur unbehandelten Kontrolle bestimmt.
structure (smiles),measurement,value
"CC(C)(C)NCC(O)c1cnc(N)nc1 (stereo not shown) [compound 1, 1-(2-Amino-5-pyrimidinyl)-2-(tert.-butylamino)-ethanol]",relative Gewichtszunahme,30%
